SMILES strings stand for the structures. Converted amounts (≈) assume the structure as drawn. Read-outs that look alike come from different tables or passages of the source.

One assay has as its system C. auris AR Bank #381. In words: MIC determination by in vitro antifungal assay. Type of assay: cell-based, Candida auris. The settings on record: C. auris AR Bank #381. In outline: (§1)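 RPMI 1640 (L-glutamine, no bicarbonate), 0.165 M MOPS, pH 7.0, 35° C. Inoculum: growing culture set to OD600 0.12 (˜1×10^6 CFU/mL), diluted 1:100. CDC AR Bank isolates.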
Another assay concerns C. auris AR Bank #382. As to the kind of experiment: MIC determination by in vitro antifungal assay. The settings on record: C. auris AR Bank #382. The format is cell-based, Candida auris. In outline:
as §1

Another assay concerns C. auris AR Bank #383. In words: MIC determination by in vitro antifungal assay. The settings on record: C. auris AR Bank #383. Type of assay: cell-based, Candida auris. In outline:
as §1

Another assay has as its system C. auris AR Bank #385. In words: MIC determination by in vitro antifungal assay. The format is cell-based, Candida auris. The settings on record: C. auris AR Bank #385. In outline:
as §1

For the next assay, the system named is C. auris AR Bank #386. In words: MIC determination by in vitro antifungal assay. Type of assay: cell-based, Candida auris. The settings on record: C. auris AR Bank #386. In outline:
as §1

For another assay, the system named is C. auris AR Bank #387. As to the kind of experiment: MIC determination by in vitro antifungal assay. The settings on record: C. auris AR Bank #387. The format is cell-based, Candida auris. In outline: as §1
Another assay has as its system C. auris AR Bank #388. As to the kind of experiment: MIC determination by in vitro antifungal assay. The format is cell-based, Candida auris. The settings on record: C. auris AR Bank #388. In outline:
as §1

For another assay, the system named is C. auris AR Bank #389. As to the kind of experiment: MIC determination by in vitro antifungal assay. Type of assay: cell-based, Candida auris. The settings on record: C. auris AR Bank #389. In outline: as §1
Assay [1] relates to Candida duobushaemulonii AR Bank #391. As to the kind of experiment: MIC determination by in vitro antifungal assay. Type of assay: cell-based. Here is the method: (§2) The antifungal agent amphotericin B (AmB) was purchased from VWR (Radnor PA, USA). AmB was dissolved in DMSO at a final concentration of 5 mg/mL and was stored at −20° C., protected from light. Candida albicans American Type Culture Collection (ATCC) 10231 (strain A), C. albicans ATCC 64124 (B), and C. albicans ATCC MYA-2876 (C) were obtained from Utah State University. C. albicans ATCC 90819 (D), C. albicans ATCC MYA-2310 (E), C. albicans ATCC MYA-1237 (F), C. albicans ATCC MYA-1003 (G), Candida glabrata ATCC 2001 (H), Candida krusei ATCC 6258 (I), Candida parapsilosis ATCC 22019 (J), Cryptococcus neoformans ATCC MYA-895 (M), Aspergillus terreus ATCC MYA-3633 (N), and Aspergillus flavus ATCC MYA-3631 (0) were obtained from the American Type Culture Collection (ATCC; Manassas, VA, USA). Aspergillus nidulans ATCC 38163 (P) was obtained from University of Kentucky. Clinically derived Aspergillus fumigatus NRRL 163 (Q), A. fumigatus NRRL 5109 (R), and A. fumigatus NRRL 6113 (S) were obtained from Northern Regional Research Laboratory (NRRL). Candida auris 384 (K), C. auris 390 (L), and fungal strains 381-400 (including 10 C. auris (AR Bank #381-390), 3 Candida duobushaemulonii (AR Bank #391, AR Bank #392, and AR Bank #394), 2 Candida haemulonii (AR Bank #393 and AR Bank #395), 1 Kodameae ohmeri (AR Bank #396), 1 C. krusei (AR Bank #397), 1 Candida lusitaniae (AR Bank #398), and 2 Saccharomyces cerevisiae strains (AR Bank #399 and AR Bank #400)) were part of a larger fungal library from the AR Bank maintained by the Centers for Disease Control and Prevention (CDC; Atlanta, GA, USA). Filamentous fungi and yeasts were cultivated at 35° C. in RPMI 1640 medium (with L-glutamine, without sodium bicarbonate, Sigma-Aldrich, St. Louis, MO) buffered to a pH of 7.0 with 0.165 M morpholinepropanesulfonic acid (MOPS) buffer (Sigma-Aldrich). For cytotoxicity assays, HepG2 and the mouse macrophage cell line J774A.1 were obtained from University of Kentucky. The human embryonic kidney cell line, HEK-293, was bought from the ATCC. Mammalian cells were grown in Dulbecco's Modified Eagle's Medium (DMEM) (from VWR) with 10% fetal bovine serum (FBS) (from VWR) and 1% Pen/Strep (from ATCC). Cell lines were cultured at 37° C. with 5% CO2 and passaged by trypsinization with 0.05% trypsin: 0.53 mM EDTA (from Sigma-Aldrich).
(§3) From the actively growing yeast culture, 100 µL were then transferred to 900 μL of RPMI 1640 medium and re-adjusted to achieve OD600 of 0.12 (˜1×10^6 CFU/mL). The cell suspension was further diluted to achieve 1:100 in RPMI 1640 medium.

Assay [2] concerns Candida duobushaemulonii AR Bank #392. In words: MIC determination by in vitro antifungal assay. Type of assay: cell-based. The procedure:
as §2, §3

Assay [3] concerns Candida duobushaemulonii AR Bank #394. As to the kind of experiment: MIC determination by in vitro antifungal assay. Type of assay: cell-based. The procedure: as §2, §3
Assay [4] concerns Candida haemulonii AR Bank #393. In words: MIC determination by in vitro antifungal assay. The format is cell-based. The procedure:
as §2, §3

In assay [5] the test system is Candida haemulonii AR Bank #395. As to the kind of experiment: MIC determination by in vitro antifungal assay. The format is cell-based. The procedure:
as §2, §3

Assay [6] concerns Candida krusei AR Bank #397. As to the kind of experiment: MIC determination by in vitro antifungal assay. The format is cell-based. The settings on record: Candida strain AR Bank #397. The procedure: as §2, §3
The test system of assay [7] is Candida lusitaniae AR Bank #398. As to the kind of experiment: MIC determination by in vitro antifungal assay. The format is cell-based. The settings on record: Candida strain AR Bank #398. The procedure:
as §2, §3

Assay [8] has as its system Kodameae ohmeri AR Bank #396. As to the kind of experiment: MIC determination by in vitro antifungal assay. The settings on record: strain AR Bank #396. Type of assay: cell-based. The procedure: as §2, §3
Assay [9] has as its system Saccharomyces cerevisiae AR Bank #399. In words: MIC determination by in vitro antifungal assay. The format is cell-based. Here is the method: as §2, §3
In assay [10] the test system is panel of ten C. auris strains (AR Bank #381-390). In words: MIC determination, summary over the C. auris panel. Type of assay: cell-based, Candida auris. The settings on record: Candidozyma auris; against all ten C. auris strains tested (AR Bank #381-390). In outline:
as §1

For assay [11], the system named is ten other fungal strains (AR Bank #391-400). In words: MIC determination, summary over ten additional fungal strains. Type of assay: cell-based. The settings on record: read-out: MIC range. Here is the method: as §2, §3
[12] abbreviates: Candidozyma auris, read-out: MIC.
Where [13] appears, read: Candidozyma duobushaemuli, read-out: MIC.
Setting [14] is: Candidozyma haemuli, read-out: MIC.
The mark [15] stands for this setting: Pichia kudriavzevii, read-out: MIC.
[16] abbreviates: Clavispora lusitaniae, read-out: MIC.

Turning to `O=C(NNc1ccc(F)cc1F)c1ccccn1` [Compound 2g], the MIC was 0.49 µg/mL (≈ 1.97 µM) in the assay on C. auris AR Bank #381 (setting [12]); 0.49 µg/mL (≈ 1.97 µM) in the assay on C. auris AR Bank #382 (setting [12]); 0.49 µg/mL (≈ 1.97 µM) in the assay on C. auris AR Bank #383 (setting [12]); 0.49 µg/mL (≈ 1.97 µM) in the assay on C. auris AR Bank #385 (setting [12]); 0.49 µg/mL (≈ 1.97 µM) with C. auris AR Bank #386 (setting [12]); 0.12 µg/mL (≈ 0.482 µM) in the assay on C. auris AR Bank #387 (setting [12]). Further, the MIC amounted to 0.12 µg/mL (≈ 0.482 µM) in the assay with C. auris AR Bank #388 (setting [12]); 0.24 µg/mL (≈ 0.963 µM) in the assay with C. auris AR Bank #389 (setting [12]); 0.12 µg/mL (≈ 0.482 µM) in [1] (setting [13]); 0.49 µg/mL (≈ 1.97 µM) in assay [2] (setting [13]); 3.9 µg/mL (≈ 15.6 µM) in [3] (setting [13]); 0.49 µg/mL (≈ 1.97 µM) in [4] (setting [14]). For the same compound, the MIC in assay [5] (setting [14]) is 0.24 µg/mL (≈ 0.963 µM); in assay [6] (setting [15]), at most 0.06 µg/mL; in assay [7] (setting [16]), 1.95 µg/mL (≈ 7.82 µM); in [8] (read-out: MIC), 0.98 µg/mL (≈ 3.93 µM); in assay [9] (read-out: MIC) it was 0.49 µg/mL (≈ 1.97 µM); in assay [10], 0.06 to 1.95 µg/mL (≈ 0.241 to 7.82 µM). Besides, in assay [11], the MIC was 0.06 to 7.8 µg/mL (≈ 0.241 to 31.3 µM).

Regarding `O=C(NNc1cc(F)ccc1F)c1ccccn1` [Compound 2h], the MIC in the assay with C. auris AR Bank #381 (setting [12]) amounted to 1.95 µg/mL (≈ 7.82 µM); with C. auris AR Bank #382 (setting [12]), 0.24 µg/mL (≈ 0.963 µM); in the assay with C. auris AR Bank #383 (setting [12]) it was 0.49 µg/mL (≈ 1.97 µM); in the assay with C. auris AR Bank #385 (setting [12]) it was 0.49 µg/mL (≈ 1.97 µM); with C. auris AR Bank #386 (setting [12]) it was 0.12 µg/mL (≈ 0.482 µM); with C. auris AR Bank #387 (setting [12]), 0.49 µg/mL (≈ 1.97 µM). For the same compound, the MIC is 0.49 µg/mL (≈ 1.97 µM) with C. auris AR Bank #388 (setting [12]); 0.49 µg/mL (≈ 1.97 µM) in the assay on C. auris AR Bank #389 (setting [12]); 0.49 µg/mL (≈ 1.97 µM) in assay [1] (setting [13]); 0.24 µg/mL (≈ 0.963 µM) in assay [2] (setting [13]); 0.24 µg/mL (≈ 0.963 µM) in [3] (setting [13]); 0.98 µg/mL (≈ 3.93 µM) in assay [4] (setting [14]). In addition, the MIC in assay [5] (setting [14]) is 0.24 µg/mL (≈ 0.963 µM); in assay [6] (setting [15]), 0.24 µg/mL (≈ 0.963 µM); in assay [7] (setting [16]), 0.49 µg/mL (≈ 1.97 µM); in assay [8] (read-out: MIC), 0.12 µg/mL (≈ 0.482 µM); in [9] (read-out: MIC), 1.95 µg/mL (≈ 7.82 µM); in assay [10], 0.06 to 1.95 µg/mL (≈ 0.241 to 7.82 µM). Moreover, the MIC in assay [11] lay in the range of 0.06 to 1.95 µg/mL (≈ 0.241 to 7.82 µM).

For the compound `COc1cccc(NNC(=O)c2cnccn2)c1` [Compound 9c], the MIC is 1.95 µg/mL (≈ 7.98 µM) in the assay with C. auris AR Bank #381 (setting [12]); 0.98 µg/mL (≈ 4.01 µM) in the assay on C. auris AR Bank #382 (setting [12]); 1.95 µg/mL (≈ 7.98 µM) in the assay on C. auris AR Bank #383 (setting [12]); 7.8 µg/mL (≈ 31.9 µM) in the assay on C. auris AR Bank #385 (setting [12]); 0.49 µg/mL (≈ 2.01 µM) with C. auris AR Bank #386 (setting [12]); 0.98 µg/mL (≈ 4.01 µM) in the assay on C. auris AR Bank #387 (setting [12]). Further, the MIC amounted to 3.9 µg/mL (≈ 16 µM) with C. auris AR Bank #388 (setting [12]); 0.98 µg/mL (≈ 4.01 µM) in the assay on C. auris AR Bank #389 (setting [12]); 0.98 µg/mL (≈ 4.01 µM) in [2] (setting [13]); 1.95 µg/mL (≈ 7.98 µM) in [3] (setting [13]); 0.49 µg/mL (≈ 2.01 µM) in assay [4] (setting [14]); 0.49 µg/mL (≈ 2.01 µM) in assay [5] (setting [14]). The MIC in [6] (setting [15]) was 0.49 µg/mL (≈ 2.01 µM); in assay [7] (setting [16]), 1.95 µg/mL (≈ 7.98 µM); in assay [8] (read-out: MIC), 0.49 µg/mL (≈ 2.01 µM); in assay [9] (read-out: MIC), 7.8 µg/mL (≈ 31.9 µM); in [10], 0.12 to 7.8 µg/mL (≈ 0.491 to 31.9 µM); in assay [11] it was 0.06 to 7.8 µg/mL (≈ 0.246 to 31.9 µM).

As for `O=C(NNc1ccc(Cl)cc1)c1cnccn1` [Compound 9e], the MIC with C. auris AR Bank #381 amounted to 7.8 μg/mL^−1; in the assay on C. auris AR Bank #382, 13.6 μg/mL^−1; with C. auris AR Bank #383, 3.9 μg/mL^−1; in the assay with C. auris AR Bank #385, 31.3 μg/mL^−1; in the assay with C. auris AR Bank #386, 7.8 μg/mL^−1; in the assay with C. auris AR Bank #387 it was 13.6 μg/mL^−1. Also, the MIC was 7.8 μg/mL^−1 against C. auris AR Bank #388; 7.8 μg/mL^−1 in the assay with C. auris AR Bank #389; 1.95 μg/mL^−1 in assay [1]; 1.95 μg/mL^−1 in assay [2]; 1.95 μg/mL^−1 in [3]; 1.95 μg/mL^−1 in assay [4]. Further, the MIC in assay [5] is given as 3.9 μg/mL^−1; in assay [6] it was 1.9 μg/mL^−1; in assay [7], 3.9 μg/mL^−1; in assay [8], 1.95 μg/mL^−1; in assay [9] it was 3.9 μg/mL^−1.

The values are drawn from patent publication US20240425464A1, “Substituted Monohydrazides as Potent Antifungal Agents” (University of Kentucky Research Foundation, priority 2023, published 2024).
